Reference: patent publication US8987195B2 (priority 2012, dated 2015)
Like-named read-outs stand apart in the source and are kept apart here.

Key:
HCV genotype 1b replicon = test: HCV replicon assay, genotype 1b replicon EC50; assay type: cell-based, Hepatitis C virus; conditions: read-out: EC50 [gt-1b]
Outline: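 Stable neomycin-selected genotype 1b replicon cells, some carrying luciferase:Neo^r fusion, plated without G418 with a compound dilution series and incubated 24-48 h. Read-out was RNA (^32P-probe protection or TaqMan, normalized to cyclophilin A) or luciferase activity. EC50 from four-parameter fit as percent of DMSO control.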

[1] = target: HCV NS3/4A protease genotype 1b (Hepatitis C virus genotype 1b, UniProt P26663); test: HCV NS3/4A protease time-resolved fluorescence (TRF) assay, Ki against genotype 1b; assay type: biochemical
Sequence of HCV NS3/4A protease genotype 1b (P26663 1027-1657): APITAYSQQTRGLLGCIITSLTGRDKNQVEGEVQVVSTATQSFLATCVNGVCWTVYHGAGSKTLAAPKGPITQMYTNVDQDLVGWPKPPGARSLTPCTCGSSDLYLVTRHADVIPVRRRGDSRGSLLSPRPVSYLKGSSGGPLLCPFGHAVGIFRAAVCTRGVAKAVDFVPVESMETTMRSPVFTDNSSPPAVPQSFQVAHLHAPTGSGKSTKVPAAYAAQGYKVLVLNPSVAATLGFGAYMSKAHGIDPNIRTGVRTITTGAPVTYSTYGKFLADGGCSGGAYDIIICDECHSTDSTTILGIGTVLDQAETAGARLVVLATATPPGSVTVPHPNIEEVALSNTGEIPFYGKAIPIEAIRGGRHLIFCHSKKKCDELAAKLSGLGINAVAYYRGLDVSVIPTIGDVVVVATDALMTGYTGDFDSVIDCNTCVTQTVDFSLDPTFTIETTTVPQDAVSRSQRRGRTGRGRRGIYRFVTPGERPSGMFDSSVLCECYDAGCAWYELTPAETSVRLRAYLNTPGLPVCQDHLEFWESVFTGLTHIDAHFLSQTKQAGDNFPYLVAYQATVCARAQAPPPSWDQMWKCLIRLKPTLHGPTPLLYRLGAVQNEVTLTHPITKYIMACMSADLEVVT
Sequence of HCV NS3/4A protease genotype 1b (P26663 1658-1711): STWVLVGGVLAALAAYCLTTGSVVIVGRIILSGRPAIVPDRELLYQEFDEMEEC
Outline: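 Ki values come from IC50 fits corrected for substrate concentration and KM. The time-resolved fluorescence protease reaction used 25 nM peptide substrate, 2.5 h, room temperature, pH 7.5 HEPES buffer, after 30 min enzyme–inhibitor preincubation.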

[2] = Hepatitis C virus, HCV replicon, genotype 1b, K+ salt
[3] = IC50 [gt-1b], NS3/4A protease TRF assay, genotype 1b enzyme 0.2 nM, K+ salt
[4] = Hepatitis C virus, HCV replicon, genotype 1b
[5] = IC50 [gt-1b], NS3/4A protease TRF assay, genotype 1b enzyme 0.2 nM
[6] = Hepatitis C virus, HCV replicon, genotype 1b, HCl salt
[7] = IC50 [gt-1b], NS3/4A protease TRF assay, genotype 1b enzyme 0.2 nM, HCl salt

Row | Compound | EC50 (HCV genotype 1b replicon; [4]) [nM] | IC50 [1, 5] [nM] | also measured
1 | COc1ccc2nc(C(F)(F)F)c3c(c2c1)CC[C@]1(C[C@H]2C(=O)N[C@]4(C(=O)NS(=O)(=O)C5(C)CC5)C[C@H]4/C=C\CCCCC[C@H](NC(=O)OCC4(C)CC4)C(=O)N2C1)O3 [Example 498, (1-methylcyclopropyl)methyl [(2R,6S,12Z,13aS,14aR,16aS)-9′-methoxy-14a-{[(1-methylcyclopropyl)sulfonyl]carbamoyl}-5,16-dioxo-5′-(trifluoromethyl)-1,1′,2′,5,6,7,8,9,10,11,13a,14,14a,15,16,16a-hexadecahydrospiro[cyclopropa[e]pyrrolo[1,2-a][1,4]diazacyclopentadecine-2,3′-pyrano[2,3-c]quinolin]-6-yl]carbamate] |  |  | EC50 (HCV genotype 1b replicon; [2]): 0.607 nM; IC50 [1, 3]: 0.009 nM
2 | COc1ccc2nc(C(F)(F)F)c3c(c2c1)CC[C@]1(C[C@H]2C(=O)N[C@]4(C(=O)NS(=O)(=O)C5(C)CC5)C[C@H]4/C=C\CCCCC[C@H](NC(=O)OCC(F)F)C(=O)N2C1)O3 [Example 499, 2,2-difluoroethyl [(2R,6S,12Z,13aS,14aR,16aS)-9′-methoxy-14a-{[(1-methylcyclopropyl)sulfonyl]carbamoyl}-5,16-dioxo-5′-(trifluoromethyl)-1,1′,2′,5,6,7,8,9,10,11,13a,14,14a,15,16,16a-hexadecahydrospiro[cyclopropa[e]pyrrolo[1,2-a][1,4]diazacyclopentadecine-2,3′-pyrano[2,3-c]quinolin]-6-yl]carbamate] |  |  | EC50 (HCV genotype 1b replicon; [2]): 0.433 nM; IC50 [1, 3]: 0.004 nM
3 | COCC1(S(=O)(=O)NC(=O)[C@@]23C[C@H]2/C=C\CCCCC[C@H](NC(=O)C2CCC(=O)N(C)C2)C(=O)N2C[C@@]4(CCc5c(c(C(F)(F)F)nc6ccc(OC)cc56)O4)C[C@H]2C(=O)N3)CC1 (stereo partly drawn) [Example 500, (2R,6S,12Z,13aS,14aR,16aS)-9′-methoxy-N-{[1-(methoxymethyl)cyclopropyl]sulfonyl}-6-{[(1-methyl-6-oxopiperidin-3-yl)carbonyl]amino}-5,16-dioxo-5′-(trifluoromethyl)-1,1′,2′,6,7,8,9,10,11,13a,14,15,16,16a-tetradecahydrospiro[cyclopropa[e]pyrrolo[1,2-a][1,4]diazacyclopentadecine-2,3′-pyrano[2,3-c]quinoline]-14a(5H)-carboxamide] | 435 | 0.014 | 
4 | COc1ccc2nc(C(F)(F)F)c3c(c2c1)CC[C@]1(C[C@H]2C(=O)N[C@]4(C(=O)NS(=O)(=O)C5(C)CC5)C[C@H]4/C=C\CCCCC[C@H](NC(=O)O[C@@H]4C[C@@H]5C[C@@H]5C4)C(=O)N2C1)O3 [Example 513, (1R,3r,5S)-bicyclo[3.1.0]hex-3-yl [(2R,6S,12Z,13aS,14aR,16aS)-9′-methoxy-14a-{[(1-methylcyclopropyl)sulfonyl]carbamoyl}-5,16-dioxo-5′-(trifluoromethyl)-1,1′,2′,5,6,7,8,9,10,11,13a,14,14a,15,16,16a-hexadecahydrospiro[cyclopropa[e]pyrrolo[1,2-a][1,4]diazacyclopentadecine-2,3′-pyrano[2,3-c]quinolin]-6-yl]carbamate] | 1.42 | 0.01 | 
5 | CCc1nc2ccc(OCCN3CCOCC3)cc2c2c1O[C@]1(CC2)C[C@H]2C(=O)N[C@]3(C(=O)NS(=O)(=O)C4(C)CC4)C[C@H]3/C=C\CCCCC[C@H](NC(=O)O[C@@H]3C[C@@H]4C[C@@H]4C3)C(=O)N2C1 [Example 516, (1R,3r,5S)-bicyclo[3.1.0]hex-3-yl {(2R,6S,12Z,13aS,14aR,16aS)-5′-ethyl-14a-{[(1-methylcyclopropyl)sulfonyl]carbamoyl}-9′-[2-(morpholin-4-yl)ethoxy]-5,16-dioxo-1,1′,2′,5,6,7,8,9,10,11,13a,14,14a,15,16,16a-hexadecahydrospiro[cyclopropa[e]pyrrolo[1,2-a][1,4]diazacyclopentadecine-2,3′-pyrano[2,3-c]quinolin]-6-yl}carbamate] |  |  | EC50 (HCV genotype 1b replicon; [6]): 1.09 nM; IC50 [1, 7]: 0.01 nM
6 | COc1ccc2nc(C(F)(F)F)c3c(c2c1)OC[C@]1(C[C@H]2C(=O)N[C@]4(C(=O)NS(=O)(=O)C5(C)CC5)C[C@@H]4/C=C/CCCCC[C@H](NC(=O)OC(C)(C)C)C(=O)N2C1)O3 [Example 517, tert-butyl [(2R,6S,12E,13aR,14aR,16aS)-9′-methoxy-14a-{[(1-methylcyclopropyl)sulfonyl]carbamoyl}-5,16-dioxo-5′-(trifluoromethyl)-1,5,6,7,8,9,10,11,13a,14,14a,15,16,16a-tetradecahydrospiro[cyclopropa[e]pyrrolo[1,2-a][1,4]diazacyclopentadecine-2,3′-[1,4]dioxino[2,3-c]quinolin]-6-yl]carbamate] | 8.87 | 11.2 | 
7 | CC(C)(C)OC(=O)N[C@H]1CCCCC/C=C\[C@@H]2C[C@@]2(C(=O)NS(=O)(=O)C2(C)CC2)NC(=O)[C@@H]2C[C@]3(CCc4c(c(C(F)(F)F)nc5ccc(OCCN6CC(F)(F)C6)cc45)O3)CN2C1=O [Example 518, tert-butyl [(2R,6S,12Z,13aS,14aR,16aS)-9′-[2-(3,3-difluoroazetidin-1-yl)ethoxy]-14a-{[(1-methylcyclopropyl)sulfonyl]carbamoyl}-5,16-dioxo-5′-(trifluoromethyl)-1,1′,2′,5,6,7,8,9,10,11,13a,14,14a,15,16,16a-hexadecahydrospiro[cyclopropa[e]pyrrolo[1,2-a][1,4]diazacyclopentadecine-2,3′-pyrano[2,3-c]quinolin]-6-yl]carbamate] | 0.726 | 0.012 | 
8 | CCc1nc2ccc(OCCN3CCOCC3)cc2c2c1O[C@]1(CC2)C[C@H]2C(=O)N[C@]3(C(=O)NS(=O)(=O)C4(C)CC4)C[C@H]3/C=C\CCCCC[C@H](NC(=O)O[C@@H](C)C(C)C)C(=O)N2C1 [Example 519, (2S)-3-methylbutan-2-yl {(2R,6S,12Z,13aS,14aR,16aS)-5′-ethyl-14a-{[(1-methylcyclopropyl)sulfonyl]carbamoyl}-9′-[2-(morpholin-4-yl)ethoxy]-5,16-dioxo-1,1′,2′,5,6,7,8,9,10,11,13a,14,14a,15,16,16a-hexadecahydrospiro[cyclopropa[e]pyrrolo[1,2-a][1,4]diazacyclopentadecine-2,3′-pyrano[2,3-c]quinolin]-6-yl}carbamate] |  |  | EC50 (HCV genotype 1b replicon; [6]): 0.541 nM; IC50 [1, 7]: 0.009 nM
9 | CC[C@H](C)OC(=O)N[C@H]1CCCCC/C=C\[C@@H]2C[C@@]2(C(=O)NS(=O)(=O)C2(C)CC2)NC(=O)[C@@H]2C[C@]3(CCc4c(c(C(F)F)nc5ccc(OC)nc45)O3)CN2C1=O [Example 525, (2S)-butan-2-yl [(2R,6S,12Z,13aS,14aR,16aS)-6′-(difluoromethyl)-2′-methoxy-14a-{[(1-methylcyclopropyl)sulfonyl]carbamoyl}-5,16-dioxo-1,5,6,7,8,9,9′,10,10′,11,13a,14,14a,15,16,16a-hexadecahydrospiro[cyclopropa[e]pyrrolo[1,2-a][1,4]diazacyclopentadecine-2,8′-pyrano[2,3-c][1,5]naphthyridin]-6-yl]carbamate] | 1.16 | 0.004 | 
10 | COc1ccc2nc(C(F)F)c3c(c2n1)CC[C@]1(C[C@H]2C(=O)N[C@]4(C(=O)NS(=O)(=O)C5(C)CC5)C[C@H]4/C=C\CCCCC[C@H](NC(=O)OCC(C)(C)C)C(=O)N2C1)O3 [Example 526, 2,2-dimethylpropyl [(2R,6S,12Z,13aS,14aR,16aS)-6′-(difluoromethyl)-2′-methoxy-14a-{[(1-methylcyclopropyl)sulfonyl]carbamoyl}-5,16-dioxo-1,5,6,7,8,9,9′,10,10′,11,13a,14,14a,15,16,16a-hexadecahydrospiro[cyclopropa[e]pyrrolo[1,2-a][1,4]diazacyclopentadecine-2,8′-pyrano[2,3-c][1,5]naphthyridin]-6-yl]carbamate] | 2.59 | 0.005 | 
11 | tert-Butyl (2R,6S,13aS,14aR,16aS,Z)-10′-chloro-5′-(difluoromethyl)-9′-methoxy-14a-(1-methylcyclopropylsulfonylcarbamoyl)-5,16-dioxo-1′,2′,3,5,6,7,8,9,10,11, 13a,14,14a,15,16,16a-hexadecahydro-1H-spiro[cyclopropa[e]pyrrolo[1,2-a][1,4]diaza cyclopentadecine-2,3′-pyrano[2,3-c]quinoline]-6-ylcarbamate [Example 27] |  |  | EC50 (HCV genotype 1b replicon; genotype 1b replicon): 10.6 nM; IC50 ([1]; NS3/4A genotype 1b, enzyme 0.2 nM, read-out: IC50 [gt-1b]): 0.011 nM
